Paper PMC9412362, “Design, Synthesis, and Characterization of Novel Coordination Compounds of Benzimidazole Derivatives with Cadmium” (Pharmaceutics, 2022)
In brackets after ≈: the same amount, converted by molar mass.

How the values were obtained:
T98G cells = experiment: MTT cytotoxicity assay, glioblastoma T98G; type: cell-based, human; conditions: MTT assay after 24 h of incubation, read-out: IC50 ± SD, T98G
Experimental: (§1) Samples of complexes (about 20 mg) were digested in a concentrated mixture of 36% HCl (1 mL) and 65% HNO3 (6 mL). The contents of Cd (II) in the solid complexes were determined with an F-AAS spectrometer (Analytik Jena, contraAA 300, Jena, Germany) with a continuous source of light and using an air/acetylene flame (Analytik Jena, contraAA 300). Absorbances were measured at the analytical spectral lines at 228.8 nm for Cd (II). The limit of quantification was 0.004 mg/L for Cd (II). The solid samples were decomposed using an Anton Paar Multiwave 3000 (Graz, Austria) closed-system instrument. Mineralization was carried out for 45 min at 240 °C under a pressure of 60 bar. The contents of carbon, hydrogen, and nitrogen were determined with an instrument from Vario Micro Company Elementar Analysensysteme GmbH (Langenselbold, Germany). FTIR spectra were recorded with an IR Tracer-100 Schimadzu Spectrometer (4000–600 cm^−1 with an accuracy of recording of 1 cm^−1, Kyoto, Japan) using KBr pellets. The thermal analyses were carried out with a Netzsch STA 449 F1 Jupiter thermoanalyzer (Netzsch-Geratebau GmbH, Selb, Germany) coupled with a Netzsch Aeolos Quadro QMS 403 mass spectrometer (Netzsch-Geratebau GmbH, Selb, Germany). The samples were heated up to 1000 °C in corundum crucibles with a heating rate of 10 °C/min in an atmosphere of synthetic air (20% O2, 80% N2). The cytotoxic effects of the compounds were evaluated using glioblastoma (T98G), neuroblastoma (SK-N-AS), and lung adenocarcinoma (A549) cell lines and normal human skin fibroblasts (CCD-1059Sk). T98G and SK-N-AS cells were cultured in high-glucose DMEM and A549 cells were cultured in DMEM/F12, while CCD-1059Sk cells were cultured in MEM. All media were supplemented with 10% (FBS), 100 U/mL of penicillin, and […] of streptomycin (PenStrep). Cells were incubated at 37 °C in a humidified atmosphere of 5% CO2. Stock solutions were prepared by dissolving the compounds in sterile dimethyl sulfoxide (DMSO) to obtain a concentration of 50 mg/mL. The cells were seeded into sterile 96-well plates (Nunc) at a density of 1 × 10^5 cells/mL. After 24 h of incubation, the medium was removed from each well, and then the cells were incubated for the next 24 h with different concentrations of the tested compounds (1–100 µg/mL) in their respective media containing 2% FBS. The cytotoxicity of the compounds was evaluated using an MTT assay, which was based on the conversion of 3-(4,5-dimethylthiazol-2-yl)-2,5-diphenyltetrazolium bromide (MTT) into dark-blue formazan crystals. Briefly, after 24 h of incubation of the cells with varying concentrations of the tested compounds, all culture media were removed from the plates. The cells were washed with PBS, and then 100 µL of medium containing 10% MTT solution (5 mg/mL) was added to each well. After 3 h of incubation, 100 µL (per well) of 10% SDS buffer solution was added to solubilize the formazan crystals. After overnight incubation, the absorbance was measured at 570 nm using a microplate reader (Epoch, BioTek Instruments). Experiments were repeated twice, and the measurements in each experiment were run in triplicate. The viability of the investigated cells was expressed as the percentage of the viability of the untreated cells, and the results were transformed into IC50 values (expressed as mean ± SD). The complexes were screened for antibacterial and antifungal activity by using the micro-dilution broth method with Mueller–Hinton broth for the growth of bacteria or Mueller–Hinton broth with 2% glucose for the growth of fungi. […]

SK-N-AS cells = experiment: MTT cytotoxicity assay, neuroblastoma SK-N-AS; type: cell-based, human; conditions: MTT assay after 24 h of incubation, read-out: IC50 ± SD, SK-N-AS
Experimental: as §1

A549 cells = experiment: MTT cytotoxicity assay, lung adenocarcinoma A549; type: cell-based, human; conditions: lung carcinoma A549, MTT assay after 24 h of incubation; read-out: IC50 ± SD, A549
Experimental: as §1

CCD-1059Sk cells = experiment: MTT cytotoxicity assay, normal human skin fibroblasts CCD-1059Sk; type: cell-based; conditions: normal human fibroblasts CCD-1059Sk, MTT assay after 24 h of incubation; read-out: IC50 ± SD, CCD-1059-Sk
Experimental: as §1

S. aureus ATCC 25923 = experiment: MIC, micro-dilution broth method; type: cell-based, Staphylococcus aureus; conditions: Gram-positive bacteria; micro-dilution broth
Experimental: as §1

[1] = test system: S. epidermidis ATCC 12228; experiment: MIC, micro-dilution broth method; type: cell-based, Staphylococcus epidermidis; conditions: Gram-positive bacteria; micro-dilution broth
Experimental: as §1

M. luteus ATCC 10240 = experiment: MIC, micro-dilution broth method; type: cell-based, Micrococcus luteus; conditions: Gram-positive bacteria; micro-dilution broth
Experimental: as §1

E. faecalis ATCC 29212 = experiment: MIC, micro-dilution broth method; type: cell-based, Enterococcus faecalis; conditions: Gram-positive bacteria; micro-dilution broth
Experimental: as §1

B. subtilis ATCC 6633 = experiment: MIC, micro-dilution broth method; type: cell-based, Bacillus subtilis; conditions: Gram-positive bacteria; micro-dilution broth
Experimental: as §1

B. cereus ATCC 10876 = experiment: MIC, micro-dilution broth method; type: cell-based, Bacillus cereus; conditions: Gram-positive bacteria; micro-dilution broth
Experimental: as §1

[2] = test system: S. typhimurium ATCC 14028; experiment: MIC, micro-dilution broth method; type: cell-based, Salmonella Typhimurium; conditions: Gram-negative bacteria
Experimental: as §1

E. coli ATCC 25922 = experiment: MIC, micro-dilution broth method; type: cell-based, Escherichia coli; conditions: for MIC, E. coli ATCC 25922: Gram-negative bacteria
Experimental: as §1

P. mirabilis ATCC 12453 = experiment: MIC, micro-dilution broth method; type: cell-based, Proteus mirabilis; conditions: for MIC, P. mirabilis ATCC 12453: Gram-negative bacteria
Experimental: as §1

K. pneumoniae ATCC 13883 = experiment: MIC, micro-dilution broth method; type: cell-based, Klebsiella pneumoniae; conditions: for MIC, K. pneumoniae ATCC 13883: Gram-negative bacteria
Experimental: as §1

P. aeruginosa ATCC 9027 = experiment: MIC, micro-dilution broth method; type: cell-based, Pseudomonas aeruginosa; conditions: for MIC, P. aeruginosa ATCC 9027: Gram-negative bacteria
Experimental: as §1

C. glabrata ATCC 2091 = experiment: MIC, micro-dilution broth method; type: cell-based; conditions: Yeasts; micro-dilution broth with 2% glucose
Experimental: as §1

C. albicans ATCC 102231 = experiment: MIC, micro-dilution broth method; type: cell-based, Candida albicans; conditions: Yeasts; micro-dilution broth with 2% glucose
Experimental: as §1

[3] = test system: C. parapsilosis ATCC 22019; experiment: MIC, micro-dilution broth method; type: cell-based, Candida parapsilosis; conditions: Yeasts; micro-dilution broth with 2% glucose
Experimental: as §1

O.[Cl][Cd][Cl].c1cnc2[nH]c(-c3ccncc3)nc2c1 [C2, Cd(L2)Cl2∙H2O]
IC50 (T98G cells): 65.25 ± 0.63 µM
IC50 (SK-N-AS cells): 22.5 µM
IC50 (A549 cells): 34.1 ± 0.55 µM
IC50 (CCD-1059Sk cells): 44.07 ± 0.33 µM
MIC, S. aureus ATCC 25923 (S. aureus ATCC 25923): 1000 µg/mL
MIC, S. epidermidis ATCC 12228 [1]: 500 µg/mL
MIC, M. luteus ATCC 10240 (M. luteus ATCC 10240): 7.8 µg/mL
MIC, E. faecalis ATCC 29212 (E. faecalis ATCC 29212): 125 µg/mL
MIC, B. subtilis ATCC 6633 (B. subtilis ATCC 6633): 0.98 µg/mL
MIC, B. cereus ATCC 10876 (B. cereus ATCC 10876): 500 µg/mL
MIC, S. typhimurium ATCC 14028 [2]: >1000 µg/mL
MIC, E. coli ATCC 25922 (E. coli ATCC 25922): 1000 µg/mL
MIC, P. mirabilis ATCC 12453 (P. mirabilis ATCC 12453): >1000 µg/mL
MIC, K. pneumoniae ATCC 13883 (K. pneumoniae ATCC 13883): >1000 µg/mL
MIC, P. aeruginosa ATCC 9027 (P. aeruginosa ATCC 9027): >1000 µg/mL
MIC, C. glabrata ATCC 2091 (C. glabrata ATCC 2091): 31.3 µg/mL
MIC, C. albicans ATCC 102231 (C. albicans ATCC 102231): 125 µg/mL
MIC, C. parapsilosis ATCC 22019 [3]: 7.8 µg/mL

O.O.[Cl][Cd][Cl].c1cncc(-c2nc3cccnc3[nH]2)c1 [C3, Cd(L3)Cl2∙2H2O]
IC50 (T98G cells): 55.7 ± 2.5 µM
IC50 (SK-N-AS cells): 34.5 ± 0.41 µM
IC50 (A549 cells): 47.2 ± 2.1 µM
IC50 (CCD-1059Sk cells): 40.4 ± 0.41 µM
MIC, S. aureus ATCC 25923 (S. aureus ATCC 25923): 1000 µg/mL
MIC, S. epidermidis ATCC 12228 [1]: 1000 µg/mL
MIC, M. luteus ATCC 10240 (M. luteus ATCC 10240): 7.8 µg/mL
MIC, E. faecalis ATCC 29212 (E. faecalis ATCC 29212): >1000 µg/mL
MIC, B. subtilis ATCC 6633 (B. subtilis ATCC 6633): 7.8 µg/mL
MIC, B. cereus ATCC 10876 (B. cereus ATCC 10876): >1000 µg/mL
MIC, S. typhimurium ATCC 14028 [2]: 125 µg/mL
MIC, E. coli ATCC 25922 (E. coli ATCC 25922): 125 µg/mL
MIC, P. mirabilis ATCC 12453 (P. mirabilis ATCC 12453): 31.3 µg/mL
MIC, K. pneumoniae ATCC 13883 (K. pneumoniae ATCC 13883): 250 µg/mL
MIC, P. aeruginosa ATCC 9027 (P. aeruginosa ATCC 9027): 125 µg/mL
MIC, C. glabrata ATCC 2091 (C. glabrata ATCC 2091): 31.3 µg/mL
MIC, C. albicans ATCC 102231 (C. albicans ATCC 102231): 125 µg/mL
MIC, C. parapsilosis ATCC 22019 [3]: 15.6 µg/mL

Brc1cnc2[nH]c(-c3cccnc3)nc2c1.O.O.[Cl][Cd][Cl] [C4, Cd(L4)Cl2∙2H2O]
IC50 (T98G cells): 42.5 ± 0.96 µM
IC50 (SK-N-AS cells): 25.3 ± 1 µM
IC50 (A549 cells): 37.3 ± 2.1 µM
IC50 (CCD-1059Sk cells): 27.7 ± 0.9 µM
MIC, S. aureus ATCC 25923 (S. aureus ATCC 25923): 1000 µg/mL
MIC, S. epidermidis ATCC 12228 [1]: 250 µg/mL
MIC, M. luteus ATCC 10240 (M. luteus ATCC 10240): 7.8 µg/mL
MIC, E. faecalis ATCC 29212 (E. faecalis ATCC 29212): 250 µg/mL
MIC, B. subtilis ATCC 6633 (B. subtilis ATCC 6633): 7.8 µg/mL
MIC, B. cereus ATCC 10876 (B. cereus ATCC 10876): 250 µg/mL
MIC, S. typhimurium ATCC 14028 [2]: 1000 µg/mL
MIC, E. coli ATCC 25922 (E. coli ATCC 25922): 500 µg/mL
MIC, P. mirabilis ATCC 12453 (P. mirabilis ATCC 12453): 1000 µg/mL
MIC, K. pneumoniae ATCC 13883 (K. pneumoniae ATCC 13883): 1000 µg/mL
MIC, P. aeruginosa ATCC 9027 (P. aeruginosa ATCC 9027): >1000 µg/mL
MIC, C. glabrata ATCC 2091 (C. glabrata ATCC 2091): 31.3 µg/mL
MIC, C. albicans ATCC 102231 (C. albicans ATCC 102231): 125 µg/mL
MIC, C. parapsilosis ATCC 22019 [3]: 7.8 µg/mL

O=C(O)c1cn(C2CC2)c2cc(N3CCNCC3)c(F)cc2c1=O [Cip, ciprofloxacin, reference compound]
MIC ([2]; Salmonella enterica): 0.061 µg/mL (≈ 0.184 µM)
MIC (E. coli ATCC 25922; Escherichia coli, ATCC25922, Gram-negative bacteria): 0.015 µg/mL (≈ 0.0453 µM)
MIC (P. mirabilis ATCC 12453; Proteus mirabilis, ATCC12453, Gram-negative bacteria): 0.03 µg/mL (≈ 0.0905 µM)
MIC (K. pneumoniae ATCC 13883; Klebsiella pneumoniae, ATCC13883, Gram-negative bacteria): 0.12 µg/mL (≈ 0.362 µM)
MIC (P. aeruginosa ATCC 9027; Pseudomonas aeruginosa, ATCC9027, Gram-negative bacteria): 0.49 µg/mL (≈ 1.48 µM)
